Test results taken from US20260048021A1, “NEUTRAL LIPID AND LIPID NANOPARTICLE” (National University Corporation Hokkaido University, priority 2022, published 2026).

How the values were obtained:
[1] = Evaluation of lipid polymorphism by 31P NMR spectroscopy; type: physicochemical; settings: DOPC/lipid=50/50 (mol %), hydrated with PBS(−), 25° C.
Experimental: The spectrum of a lipid membrane by ^31P NMR spectroscopy differs depending on the phase. Therefore, analysis of a lipid membrane composed of DOPC and a lipid under evaluation was performed by ^31P NMR spectroscopy, the polymorphism of the phase state of the lipid membrane was evaluated from the obtained spectrum, and the ability of the lipid under evaluation to destroy the DOPC membrane was evaluated.
Specifically, DOPC and a lipid under evaluation (DOPE or TOT-10) were mixed at a molar ratio of 1:1 (16 μmol of total lipid) and were dissolved in 300 μL of chloroform, and then the solvent was removed by a distillation apparatus (rotovap) to form a lipid membrane. The resulting lipid membrane was hydrated with 500 μL of PBS(−) at 60° C. to obtain a sample for measurement.
Next, the sample was transferred to an NMR tube, and a proton-decoupled ^31P NMR spectrum was obtained using an ECA500 apparatus manufactured by JEOL Ltd. Acquisition parameters included a […], a spectral width of 280 kHz (for ECX 400P) with 32,768 data points, and an interpulse delay time of 1 second. The temperature was controlled at 25° C. Prior to Fourier transform, exponential multiplication corresponding to a line broadening of 50 Hz was applied to the free induction decay. Chemical shifts were referenced to 85% phosphoric acid (H3PO4) as an external standard. […]

factor VII (F7) = settings: mouse liver; cited from earlier work

SMILES	phase of lipid membrane seen in 31P NMR spectrum [1]	ED50 in factor VII (F7) knockdown (factor VII (F7))
CCCCCCCC/C=C\CCCCCCCC(=O)OC[C@H](COP(=O)(O)OCCN)OC(=O)CCCCCCC/C=C\CCCCCCCC [DOPE, 1,2-dioleoyl-sn-glycero-3-phosphoethanolamine]	a peak derived from the lamellar phase was observed	
CCCCCCCC/C=C\CCCCCCCC(=O)OCC(COC(=O)CCCCCCC/C=C\CCCCCCCC)(COC(=O)CCCCCCC/C=C\CCCCCCCC)NC(=O)CCC[N+](C)(C)CC(=O)[O-] [TOT-10, 2-((4-((1,3-bis(oleoyloxy)-2-((oleoyloxy)methyl)propan-2-yl)amino)-4-oxobutyl)dimethylammonio)acetate]	a peak derived from the hexagonal phase or isotropic phase was observed instead of a peak derived from the lamellar phase	
CCCCC/C=C\C/C=C\CCCCCCCCOC1(OCCCCCCCC/C=C\C/C=C\CCCCC)CCN(C)CC1 [YSK05]		0.06 mg siRNA/kg
CCCCC/C=C\C/C=C\CCCCCCCCC(CCCCCCCC/C=C\C/C=C\CCCCC)OC(=O)CCCN(C)C [DLin-MC3-DMA]		0.005 mg siRNA/kg
